From patent publication US20240239861A1, “GLUCAGON-RECEPTOR SELECTIVE POLYPEPTIDES AND METHODS OF USE THEREOF” (i2O Therapeutics, Inc., priority 2016, published 2024) come the findings set out here.

Experiment [1] addresses human GCGR (Homo sapiens, UniProt P47871). Description: Peptide-receptor mediated cAMP accumulation (LANCE Ultra cAMP) in CHO-K1 cells transfected with human GCGR. The format is cell-based. For orientation: Cyclic AMP is a second messenger, typically raised through Gs and lowered through Gi signalling.
The target of experiment [2] is human GLP-1R (Homo sapiens, UniProt P43220). As to the kind of experiment: Peptide-receptor mediated cAMP accumulation (LANCE Ultra cAMP) in CHO-K1 cells transfected with human GLP-1R. Format: cell-based.
Chain of human GLP-1R (P43220 24-463): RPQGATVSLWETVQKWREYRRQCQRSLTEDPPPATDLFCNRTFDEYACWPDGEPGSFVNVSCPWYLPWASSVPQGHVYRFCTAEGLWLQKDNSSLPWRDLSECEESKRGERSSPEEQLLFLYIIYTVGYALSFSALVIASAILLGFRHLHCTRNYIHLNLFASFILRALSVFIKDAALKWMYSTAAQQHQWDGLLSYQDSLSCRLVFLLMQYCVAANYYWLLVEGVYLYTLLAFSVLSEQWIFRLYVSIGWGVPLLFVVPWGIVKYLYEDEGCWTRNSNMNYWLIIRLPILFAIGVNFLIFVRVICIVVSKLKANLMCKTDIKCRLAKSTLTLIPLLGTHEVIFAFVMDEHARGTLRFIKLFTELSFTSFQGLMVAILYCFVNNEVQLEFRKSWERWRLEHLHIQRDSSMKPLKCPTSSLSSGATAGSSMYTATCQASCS
[3] abbreviates: read-out: GluR pEC50 (converted).
[4] abbreviates: Table 7, GLP-1R, read-out: GLP-1R pEC50 (converted).
[5] abbreviates: hGLP1 pEC50 (cAMP mean (n = 3): 11 point curve starting at 1 nM, Table 3).

Where two headings read alike, the source gives them in different places. *1 amine or outer side, *2 acyl side, *3 side chain or, on linkers, in order; H or OH if unused. Where a SMILES comes first, the peptide text is derived from it. Side-chain parts run from the residue outwards. [ ]: non-standard residue; d: D form. The star is where a group is joined. C18 diacid = O=C(O)CCCCCCCCCCCCCCCCC(=O)*; γGlu = O=C(O)[C@H](CCC(=O)[*:2])N[*:1]; Palmitoyl = CCCCCCCCCCCCCCCC(=O)*; AEEA = NCCOCCOCC(=O)O; Aib = CC(C)(N)C(=O)O Where only a bound is given, the exact number is not on record here.

Chain of human GCGR (P47871 26-477): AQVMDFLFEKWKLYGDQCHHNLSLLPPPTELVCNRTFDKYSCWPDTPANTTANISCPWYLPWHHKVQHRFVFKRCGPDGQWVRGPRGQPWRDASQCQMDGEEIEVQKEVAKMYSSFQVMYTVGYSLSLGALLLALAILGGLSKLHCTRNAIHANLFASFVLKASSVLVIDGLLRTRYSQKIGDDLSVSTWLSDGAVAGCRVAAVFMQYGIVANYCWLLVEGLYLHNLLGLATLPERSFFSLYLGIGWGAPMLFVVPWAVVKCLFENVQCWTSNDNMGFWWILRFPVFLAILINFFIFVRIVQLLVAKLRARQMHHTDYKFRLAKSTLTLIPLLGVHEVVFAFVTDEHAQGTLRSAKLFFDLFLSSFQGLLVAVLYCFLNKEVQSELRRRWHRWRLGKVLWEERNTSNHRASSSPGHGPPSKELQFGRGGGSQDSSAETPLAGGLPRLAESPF

As for `CCCCCCCCCCCCCCCC(=O)N[C@@H](CCC(=O)NCCCC[C@H](NC(=O)[C@H](CC(=O)O)NC(=O)[C@H](CC(C)C)NC(=O)[C@H](Cc1ccc(O)cc1)NC(=O)[C@H](CCCCN)NC(=O)[C@H](CO)NC(=O)[C@H](Cc1ccc(O)cc1)NC(=O)[C@H](CC(=O)O)NC(=O)[C@H](CO)NC(=O)[C@@H](NC(=O)[C@H](Cc1ccccc1)NC(=O)[C@@H](NC(=O)CNC(=O)[C@H](Cc1c[nH]cn1)NC(=O)[C@H](CO)NC(=O)[C@@H](N)Cc1ccc(O)cc1)[C@@H](C)O)[C@@H](C)O)C(=O)N[C@@H](C)C(=O)N[C@@H](CCCNC(=N)N)C(=O)N[C@@H](C)C(=O)N[C@@H](CCC(N)=O)C(=O)N[C@@H](CCC(=O)O)C(=O)N[C@@H](Cc1ccccc1)C(=O)N[C@H](C(=O)N[C@@H](CCCCN)C(=O)N[C@@H](Cc1c[nH]c2ccccc12)C(=O)N[C@@H](CC(C)C)C(=O)N[C@@H](CCC(=O)O)C(=O)N[C@@H](CC(=O)O)C(=O)N[C@@H](CCC(=O)O)C(=O)N1CCC[C@H]1C(=O)N[C@@H](CO)C(=O)N[C@@H](CO)C(=O)NCC(=O)N[C@@H](C)C(=O)N1CCC[C@H]1C(=O)N1CCC[C@H]1C(=O)N1CCC[C@H]1C(=O)N[C@@H](CO)C(N)=O)C(C)C)C(=O)O` [Compound B43], the EC50 was 0.00794 nM in experiment [1] (setting [3]) and greater than 1000 nM in experiment [2] (setting [4]).

On to `CC(C)C[C@H](NC(=O)[C@H](Cc1ccc(O)cc1)NC(=O)[C@H](CCCCN)NC(=O)[C@H](CO)NC(=O)[C@H](Cc1ccc(O)cc1)NC(=O)[C@H](CC(=O)O)NC(=O)[C@H](CO)NC(=O)[C@@H](NC(=O)[C@H](Cc1ccccc1)NC(=O)[C@@H](NC(=O)CNC(=O)[C@H](Cc1c[nH]cn1)NC(=O)[C@H](CO)NC(=O)[C@@H](N)Cc1ccc(O)cc1)[C@@H](C)O)[C@@H](C)O)C(=O)N[C@@H](CC(=O)O)C(=O)N[C@@H](CO)C(=O)N[C@@H](C)C(=O)N[C@@H](CCCNC(=N)N)C(=O)N[C@@H](C)C(=O)N[C@@H](CCC(N)=O)C(=O)N[C@@H](CCC(=O)O)C(=O)N[C@@H](Cc1ccccc1)C(=O)N[C@H](C(=O)N[C@@H](CCCCN)C(=O)N[C@@H](Cc1c[nH]cn1)C(=O)N[C@@H](CC(C)C)C(=O)N[C@@H](CCC(=O)O)C(=O)N[C@@H](CC(=O)O)C(=O)N[C@@H](CCC(=O)O)C(=O)N1CCC[C@H]1C(=O)N[C@@H](CCCCN)C(=O)N[C@@H](CO)C(=O)N[C@@H](CCCCN)C(=O)N[C@@H](CO)C(=O)N1CCC[C@H]1C(=O)N1CCC[C@H]1C(=O)N1CCC[C@H]1C(=O)N[C@@H](CO)C(=O)O)C(C)C` [Compound A84] (H-YSHGTFTSDYSKYLDSARAQEFVKHLEDEPKSKSPPPS-OH; N-terminus assumed), for which the EC50 in experiment [1] (Table 3) is 0.398 nM; in experiment [2] (setting [5]), greater than 1 nM.

For the molecule `CC(C)C[C@H](NC(=O)[C@H](Cc1ccc(O)cc1)NC(=O)[C@H](CCCCN)NC(=O)[C@H](CO)NC(=O)[C@H](CCCCNC(=O)COCCOCCNC(=O)COCCOCCNC(=O)CC[C@H](NC(=O)CCCCCCCCCCCCCCCCC(=O)O)C(=O)O)NC(=O)[C@H](CC(=O)O)NC(=O)[C@H](CO)NC(=O)[C@@H](NC(=O)[C@H](Cc1ccccc1)NC(=O)[C@@H](NC(=O)CNC(=O)[C@H](Cc1c[nH]cn1)NC(=O)[C@H](CO)NC(=O)[C@@H](N)Cc1ccc(O)cc1)[C@@H](C)O)[C@@H](C)O)C(=O)N[C@@H](CC(=O)O)C(=O)NC(C)(C)C(=O)N[C@@H](CCCCN)C(=O)N[C@@H](CO)C(=O)N[C@@H](C)C(=O)N[C@@H](CCC(N)=O)C(=O)N[C@@H](CCC(=O)O)C(=O)N[C@@H](Cc1ccccc1)C(=O)N[C@H](C(=O)NC(C)(C)C(=O)N[C@@H](Cc1c[nH]c2ccccc12)C(=O)N[C@@H](CC(C)C)C(=O)N[C@@H](CCC(=O)O)C(=O)N[C@@H](CC(=O)O)C(=O)N[C@@H](CCC(=O)O)C(=O)N1CCC[C@H]1C(=O)N[C@@H](CO)C(=O)N[C@@H](CO)C(=O)NCC(=O)N[C@@H](C)C(=O)N1CCC[C@H]1C(=O)N1CCC[C@H]1C(=O)N1CCC[C@H]1C(=O)N[C@@H](CO)C(=O)O)C(C)C` [Compound B16] (H-YSHGTFTSDK([AEEA-AEEA-γGlu-C18 diacid])SKYLD[Aib]KSAQEFV[Aib]WLEDEPSSGAPPPS-OH), the results for the EC50 in experiment [1] (setting [3]) and in experiment [2] (setting [4]) were 3.16 nM and 5.01 nM, respectively.

In the case of `CC(C)C[C@H](NC(=O)[C@H](Cc1ccc(O)cc1)NC(=O)[C@H](CCCCN)NC(=O)[C@H](CO)NC(=O)[C@H](Cc1ccc(O)cc1)NC(=O)[C@H](CC(=O)O)NC(=O)[C@H](CO)NC(=O)[C@@H](NC(=O)[C@H](Cc1ccccc1)NC(=O)[C@@H](NC(=O)CNC(=O)[C@H](Cc1c[nH]cn1)NC(=O)[C@@H](NC(=O)[C@@H](N)Cc1ccc(O)cc1)[C@@H](C)O)[C@@H](C)O)[C@@H](C)O)C(=O)N[C@@H](CC(=O)O)C(=O)NC(C)(C)C(=O)N[C@@H](CCCCN)C(=O)N[C@@H](CCCNC(=N)N)C(=O)N[C@@H](C)C(=O)N[C@@H](CCC(N)=O)C(=O)N[C@@H](CCC(=O)O)C(=O)N[C@@H](Cc1ccccc1)C(=O)N[C@H](C(=O)NC(C)(C)C(=O)N[C@@H](Cc1c[nH]c2ccccc12)C(=O)N[C@@H](CC(C)C)C(=O)N[C@@H](CCC(=O)O)C(=O)N[C@@H](CC(=O)O)C(=O)N[C@@H](CCC(=O)O)C(=O)N1CCC[C@H]1C(=O)N[C@@H](CO)C(=O)N[C@@H](CO)C(=O)NCC(=O)N[C@@H](C)C(=O)N1CCC[C@H]1C(=O)N1CCC[C@H]1C(=O)N1CCC[C@H]1C(=O)N[C@@H](CO)C(=O)O)C(C)C` [Compound A62] (H-YTHGTFTSDYSKYLD[Aib]KRAQEFV[Aib]WLEDEPSSGAPPPS-OH; N-terminus assumed), the EC50 in experiment [1] (Table 3) is 0.00316 nM; in experiment [2] (setting [5]), greater than 1 nM.

With `CCCCCCCCCCCCCCCC(=O)N[C@@H](CCC(=O)NCCCC[C@H](NC(=O)[C@H](CC(=O)O)NC(=O)[C@H](CC(C)C)NC(=O)[C@H](Cc1ccc(O)cc1)NC(=O)[C@H](CCCCN)NC(=O)[C@H](CO)NC(=O)[C@H](Cc1ccc(O)cc1)NC(=O)[C@H](CC(=O)O)NC(=O)[C@H](CO)NC(=O)[C@@H](NC(=O)[C@H](Cc1ccccc1)NC(=O)[C@@H](NC(=O)CNC(=O)[C@H](CCC(N)=O)NC(=O)[C@H](CO)NC(=O)[C@@H](N)Cc1ccc(O)cc1)[C@@H](C)O)[C@@H](C)O)C(=O)N[C@@H](C)C(=O)N[C@@H](CCCNC(=N)N)C(=O)N[C@@H](C)C(=O)N[C@@H](CCC(N)=O)C(=O)N[C@@H](CCC(=O)O)C(=O)N[C@@H](Cc1ccccc1)C(=O)N[C@H](C(=O)N[C@@H](CCCCN)C(=O)N[C@@H](Cc1c[nH]c2ccccc12)C(=O)N[C@@H](CC(C)C)C(=O)N[C@@H](CCC(=O)O)C(=O)N[C@@H](CC(=O)O)C(=O)N[C@@H](CCC(=O)O)C(=O)N1CCC[C@H]1C(=O)N[C@@H](CCCCN)C(=O)N[C@@H](CO)C(=O)N[C@@H](CCCCN)C(=O)N[C@@H](CO)C(=O)N1CCC[C@H]1C(=O)N1CCC[C@H]1C(=O)N1CCC[C@H]1C(=O)N[C@@H](CO)C(N)=O)C(C)C)C(=O)O` [Compound B35] (H-YSQGTFTSDYSKYLDK([γGlu-Palmitoyl])ARAQEFVKWLEDEPKSKSPPPS-NH2), the EC50 in experiment [1] (setting [3]) is 0.00794 nM; in experiment [2] (setting [4]) it was 251 nM.

Regarding `CC(C)C[C@H](NC(=O)[C@H](Cc1ccc(O)cc1)NC(=O)[C@H](CCCCN)NC(=O)[C@H](CO)NC(=O)[C@H](Cc1ccc(O)cc1)NC(=O)[C@H](CC(=O)O)NC(=O)[C@H](CO)NC(=O)[C@@H](NC(=O)[C@H](Cc1ccccc1)NC(=O)[C@@H](NC(=O)CNC(=O)[C@H](Cc1c[nH]cn1)NC(=O)[C@H](CO)NC(=O)[C@@H](N)Cc1ccc(O)cc1)[C@@H](C)O)[C@@H](C)O)C(=O)N[C@@H](CC(=O)O)C(=O)NC(C)(C)C(=O)N[C@@H](C)C(=O)N[C@@H](CCCNC(=N)N)C(=O)N[C@@H](C)C(=O)N[C@@H](CCC(N)=O)C(=O)N[C@@H](CCC(=O)O)C(=O)N[C@@H](Cc1ccccc1)C(=O)N[C@H](C(=O)NC(C)(C)C(=O)N[C@@H](Cc1c[nH]c2ccccc12)C(=O)N[C@@H](CC(C)C)C(=O)N[C@@H](CCC(=O)O)C(=O)N[C@@H](CC(=O)O)C(=O)N[C@@H](CCC(=O)O)C(=O)N1CCC[C@H]1C(=O)N[C@@H](CCCCN)C(=O)N[C@@H](CO)C(=O)N[C@@H](CCCCN)C(=O)N[C@@H](CO)C(=O)N1CCC[C@H]1C(=O)N1CCC[C@H]1C(=O)N1CCC[C@H]1C(=O)N[C@@H](CO)C(N)=O)C(C)C` [Compound A67] (H-YSHGTFTSDYSKYLD[Aib]ARAQEFV[Aib]WLEDEPKSKSPPPS-NH2; N-terminus assumed), the EC50 in experiment [1] (Table 3) is 0.0126 nM; in experiment [2] (setting [5]), greater than 1 nM.

With `CC(C)C[C@H](NC(=O)[C@H](Cc1ccc(O)cc1)NC(=O)[C@H](CCCCN)NC(=O)[C@H](CO)NC(=O)[C@H](Cc1ccc(O)cc1)NC(=O)[C@H](CC(=O)O)NC(=O)[C@H](CO)NC(=O)[C@@H](NC(=O)[C@H](Cc1ccccc1)NC(=O)[C@@H](NC(=O)CNC(=O)[C@H](Cc1c[nH]cn1)NC(=O)[C@H](CO)NC(=O)[C@@H](N)Cc1ccc(O)cc1)[C@@H](C)O)[C@@H](C)O)C(=O)N[C@@H](CC(=O)O)C(=O)NC(C)(C)C(=O)N[C@@H](CCCCN)C(=O)N[C@@H](CCCNC(=N)N)C(=O)N[C@@H](C)C(=O)N[C@@H](CCC(N)=O)C(=O)N[C@@H](CCC(=O)O)C(=O)N[C@@H](Cc1ccccc1)C(=O)N[C@H](C(=O)NC(C)(C)C(=O)N[C@@H](Cc1c[nH]c2ccccc12)C(=O)N[C@@H](CC(C)C)C(=O)N[C@@H](CCC(=O)O)C(=O)N[C@@H](CC(=O)O)C(=O)N[C@@H](CCC(=O)O)C(=O)N[C@@H](CCCCN)C(=O)N[C@@H](CCCNC(=N)N)C(=O)N[C@@H](CC(N)=O)C(=O)N[C@@H](CCCCN)C(=O)N[C@@H](CC(N)=O)C(=O)N1CCC[C@H]1C(=O)N1CCC[C@H]1C(=O)N[C@@H](CO)C(=O)O)C(C)C` [Compound A47] (H-YSHGTFTSDYSKYLD[Aib]KRAQEFV[Aib]WLEDEKRNKNPPS-OH; N-terminus assumed), the EC50 is 0.00316 nM in experiment [1] (Table 3) and greater than 1 nM in experiment [2] (setting [5]).
